The term IC50 denotes the point on the concentration scale where inhibition reaches its midpoint. By inhibition is commonly meant how much of the control response was suppressed.

Several values for one entry are separate records, joined by “and”; a condition that tells them apart may be missing. Equal values may be shown once. Read-outs that look alike come from different tables or passages of the source.

For data set [1], the target named is T1, HIV-1 IN (Human immunodeficiency virus type 1 group M subtype B, UniProt P12497). The data set can be described thus: HIV-1 IN 3′-processing (3P) gel-based catalytic assay. The class given is biochemical. Also noted: made in house. The source says: As described above, HIV-1 IN has two functions: 3′-processing (3P) and strand transfer (ST).
Gels were dried and reaction products were visualized and quantified with a Typhoon 8600 (GE Healthcare, Little Chalfont, Buckinghamshire, UK).

The target of data set [2] is T1, HIV-1 IN. The data set can be described thus: HIV-1 IN strand transfer (ST) gel-based catalytic assay. The class given is biochemical. Details: made in house. Conditions: for IC50: Strand Transfer IC50, 32P-end labeled oligonucleotides in solution, gel-based separation. The text has this: As described above, HIV-1 IN has two functions: 3′-processing (3P) and strand transfer (ST). […] All 21 RCD compounds were screened for inhibitory activity against the 3P and ST reactions using published protocols (Metifiot M, et al., Biochemistry 49:3715-3722 (2010); Marchand C, Neamati N, & Pommier Y, Methods Enzymol 340:624-633 (2001)).
Some assays use preassembled HIV-1 IN on immobilized oligonucleotides (Pace P, et al., J. Med. Chem. 50(9):2225-2239 (2007)), whereas the assay provided herein uses ^32-P-end labeled oligonucleotides in solution and gel-based separation of the reaction products.
Recombinant HIV-1 IN and oligonucleotide substrates were obtained as previously reported (Marinello et al. Biochemistry 2008, 47, 9345-9354; Metifiot et al. Antimicrob. Agents Chemother. 2011, 55, 5127-5133; Hare et al. Mol. Pharmacol. 2011, 80, 565-572). Integrase reactions were performed in 10 μL total volume including 400 nM HIV-1 IN, 20 nM 5′-end [^32P]-labeled oligonucleotide substrate, and 1 μL inhibitor solution in 50 mM MOPS, pH 7.2, 7.5 mM MgCl2, and 14.3 mM 2-mercaptoethanol Inhibitor dilutions were in DMSO, and DMSO without drug was used as a control. Reactions were incubated at 37° C. for 60 min, terminated by adding 10 μL loading dye (10 mM EDTA, 98% deionized formamide, 0.025% xylene cyanol, and 0.025% bromophenol blue), and were subjected to electrophoresis in 20% polyacrylamide-7 M urea gels. Gels were dried and reaction products were visualized and quantified with a Typhoon 8600 (GE Healthcare, Little Chalfont, Buckinghamshire, UK).

The next data set relates to HIV. The experiment in a line: microbe, parasite or virus in culture. Conditions: read-out: Antiviral Activity IC50. Format: cell-based. As for the experimental part: (§1) In addition to cell-free in vitro assays, eight RCD compounds were examined for inhibition of viral replication (Table 1) (Day J R, et al., J. Virol. Meth. 137(1):125-133 (2006)).
Computational docking was preformed using the Glide software package (Glide v5.5; Schrodinger, Inc.). Enzyme and cell-based assays were performed as previously described (Metifiot M, et al., Biochemistry 49:3715-3722 (2010); Marchand C, Neamati N, & Pommier Y, Methods Enzymol 340:624-633 (2001); Day J R, et al., J. Virol. Meth. 137(1):125-133 (2006)). Complete synthetic and experimental details are provided herein.

The next data set deals with P4R5 cells. The data set can be described thus: Toxicity assay on P4R5 cells. Format: cell-based. The note with it: at a concentration of 10 μM.
Source text: as §1

Data set [3] deals with T1, HIV-1 IN. Conditions: read-out: IC50 against the strand transfer reaction of HIV-1 IN, reported value; Pace et al. 2007; preassembled IN on immobilized oligonucleotides; cited from earlier work.
The mark [4] stands for this setting: Human immunodeficiency virus 1, P4/R5, P4R5 cells.

For `Cc1cc(=O)c(O)c(C(=O)NCc2ccc(F)cc2)n1C` [RCD-3], the IC50 at HIV-1 IN [1] (read-out: 3'-Processing IC50) and against HIV-1 IN [2] was more than 100 µM throughout.
For the compound `O=C(NCc1ccc(F)cc1)c1ccc2cccnc2c1O` [RCD-12], the IC50 is less than 4 µM with HIV (setting [4]) and 2.3 µM in the data set with HIV (P4R5 cells).
As for `O=C(NCc1ccc(F)cc1)c1cccc(O)c1O` [RCD-8, N-(4-Fluorobenzyl)-2,3-dihydroxybenzamide], the results for the half-inhibitory concentration (IC50) at HIV-1 IN [1] (read-out: 3'-Processing IC50) and on HIV-1 IN [2] were more than 100 µM and 39.4 ± 4 µM, respectively.
Take `O=C(O)c1cccc(C(=O)NCc2ccc(F)cc2)[n+]1[O-]` [RCD-16, 2-Carboxy-6-((4-fluorobenzyl)carbamoyl)pyridine 1-oxide]: the IC50 at HIV-1 IN [1] (read-out: 3'-Processing IC50) was determined as 21.4 ± 3 µM; at HIV-1 IN [2], 9.2 ± 1.3 µM.
The like results for `O=C(NCc1ccc(F)cc1)c1occc(=O)c1O` [RCD-4] were, in that order, more than 100 µM and 0.96 µM.
In the case of `CNC(=O)c1cccc(C(=O)NCc2ccc(F)cc2)c1O` [RCD-18, N1-(4-Fluorobenzyl)-2-hydroxy-N3-methylisophthalamide], the half-inhibitory concentration (IC50) against HIV-1 IN [1] was more than 300 µM; against HIV-1 IN [2], more than 300 µM; with HIV (setting [4]), more than 100 µM.
As for `COc1cccc(C(=O)NCc2ccc(F)cc2)c1O` [RCD-9, N-(4-Fluorobenzyl)-2-hydroxy-3-methoxybenzamide], the half-inhibitory concentration (IC50) on HIV-1 IN [1] (read-out: 3'-Processing IC50) and at HIV-1 IN [2] was more than 100 µM throughout. Besides, the “Strand transfer activity in words” value at HIV-1 IN [2] (concentrations as high as 100 μM) is “complete loss of activity”.
Take `O=C(NCc1ccc(F)cc1)c1ccc2ccc[n+]([O-])c2c1O` [RCD-14, 7-((4-Fluorobenzyl)carbamoyl)-8-hydroxyquinoline 1-oxide]: the IC50 against HIV-1 IN [1] worked out at 40.5 ± 2 µM; at HIV-1 IN [2], 3.8 ± 0.3 µM. For the same compound, the “Toxicity on P4R5 cells” value in the data set with P4R5 cells is recorded as “some toxicity”.
As for `Cc1cc(=O)c(O)c(C(=O)NCc2ccc(F)cc2)o1` [RCD-5], the IC50 on HIV-1 IN [1] (read-out: 3'-Processing IC50) is 59.5 ± 1.4 µM; at HIV-1 IN [2] it was 0.55 µM and < 15 µM.
Turning to `O=C(NCc1ccc(F)cc1)c1ccc(C(=O)NCc2ccc(F)cc2)c(O)c1O` [RCD-11, N1,N4-Bis(4-fluorobenzyl)-2,3-dihydroxyterephthalamide], the IC50 is more than 300 µM at HIV-1 IN [1] (read-out: 3'-Processing IC50); 1.7 µM and < 2 µM on HIV-1 IN [2].
On to `O=C(NCc1ccc(F)cc1)c1cccc(C(=O)NCc2ccc(F)cc2)c1O` [RCD-19, N1,N3-Bis(4-fluorobenzyl)-2-hydroxyisophthalamide], for which the IC50 on HIV-1 IN [1] (read-out: 3'-Processing IC50) and on HIV-1 IN [2] was more than 300 µM throughout.
As for `CNC(=O)c1ccc(C(=O)NCc2ccc(F)cc2)c(O)c1O` [RCD-10, N1-(4-Fluorobenzyl)-2,3-dihydroxy-N4-methylterephthalamide], the IC50 against HIV-1 IN [1] was more than 200 µM; against HIV-1 IN [2], 1.5 µM and < 15 µM and < 2 µM; with HIV (setting [4]), less than 4 µM; with HIV (P4R5 cells) it was 4 µM.
Regarding `O=C(NCc1ccc(F)cc1)c1ccccc1O` [RCD-15, N-(4-Fluorobenzyl)-2-hydroxybenzamide], the IC50 at HIV-1 IN [1] (read-out: 3'-Processing IC50) and against HIV-1 IN [2] was more than 100 µM in each case.
Consider `Cn1ccc(=O)c(O)c1C(=O)NCc1ccc(F)cc1` [RCD-2], for which the IC50 at HIV-1 IN [1] (read-out: 3'-Processing IC50) and at HIV-1 IN [2] was more than 100 µM throughout.
In the case of `O=C(NCc1ccc(F)cc1)c1cccc(C(=O)NCc2ccc(F)cc2)[n+]1[O-]` [RCD-17, 2,6-Bis((4-fluorobenzyl)carbamoyl)pyridine 1-oxide], the results for the IC50 on HIV-1 IN [1], on HIV-1 IN [2] and in the data set on HIV (setting [4]) were more than 300 µM, more than 100 µM and more than 100 µM, respectively.
With `O=C(NCc1ccc(F)cc1)c1ccc2cccc(O)c2n1` [RCD-13, N-(4-Fluorobenzyl)-8-hydroxyquinoline-2-carboxamide], the half-maximal inhibitory concentration (IC50) at HIV-1 IN [1] (read-out: 3'-Processing IC50), at HIV-1 IN [2] and in the data set with HIV (setting [4]) was more than 100 µM throughout. Also, the inhibition at 100 µM at HIV-1 IN [2] (read-out: Strand transfer inhibition) is less than 30%.
With `O=C(NCc1ccc(F)cc1)c1cccc(=O)n1O` [RCD-7], the IC50 was more than 100 µM at HIV-1 IN [1] (read-out: 3'-Processing IC50) and 19.7 ± 1.6 µM on HIV-1 IN [2].
As for `Cc1occ(O)c(=O)c1C(=O)NCc1ccc(F)cc1`, the IC50 on HIV-1 IN [1] (read-out: 3'-Processing IC50) is more than 100 µM; against HIV-1 IN [2] it was 56 ± 7 µM.
As to `Cc1nc(C(=O)NCc2ccc(F)cc2)c(O)c(=O)[nH]1` [RCD-1, N-(4-Fluorobenzyl)-5-hydroxy-2-methyl-6-oxo-1,6-dihydropyrimidine-4-carboxamide], the half-inhibitory concentration (IC50) was more than 100 µM on HIV-1 IN [1]; ~1 µM and 1 µM against HIV-1 IN [2]; 0.06 µM on HIV-1 IN [3]. The “Selectivity for ST versus 3P reaction” value on HIV-1 IN [2] (ST versus 3P) is recorded as “selectivity for the ST versus 3P reaction”.
